Measurements from the supplement of paper PMC10307832.

Compound: O=C(O)c1ccc2c(c1)nc(Nc1cccc(Cl)c1)c1ccncc12 [Silmitasertib] + CC(=O)c1c(C)c2cnc(Nc3ccc(N4CCNCC4)cn3)nc2n(C2CCCC2)c1=O [Palbociclib] (partner 0.5 µM)
Test: relative viability (nuclei count vs DMSO), 5 days (fraction); higher = more cells survive
Outline: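 Dosing by pin tool came one day after lung cancer cell lines were seeded in 1536-well plates, using either one drug or a fixed anchor-drug dose plus five library-drug doses (not always all listed) in √10 steps. After 5 days, nuclei were counted on 4× images. Relative viability is treated-well nuclei count divided by vehicle-well nuclei count, and values are medians of duplicate plates.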

Cell Line	relative viability (first compound 0.04 µM)	relative viability (first compound 0.4 µM)	relative viability (first compound 1.265 µM)	relative viability (first compound 4 µM)
201T	0.353	0.346	0.37	0.387
A-427	0.555	0.451	0.583	0.517
ABC-1	1.09	0.86	0.555	0.674
BEN	0.511	0.394	0.432	0.519
CAL-12T	0.408	0.382	0.313	0.194
COR-L23	0.316	0.251	0.261	0.207
COR-L 105	0.43	0.426	0.396	0.399
ChaGo-K-1	0.995	0.674	0.896	0.929
EKVX	0.439		0.336	0.423
EMC-BAC-2	0.521	0.448	0.378	0.292
EPLC-272H	0.319		0.343	0.304
H3255	0.319	0.348	0.316	0.294
HARA	0.389	0.252	0.201	0.261
HCC-15	0.77	0.491	0.564	0.367
HCC-44	0.975	1.06	1.01	0.959
HCC-78	0.521	0.432	0.497	0.455
HCC-366	0.422	0.329	0.36	0.38
HCC-827	0.556		0.343	0.442
HOP-62	0.466		0.373	0.396
LC-2-ad	0.47	0.499	0.462	0.538
LCLC-97TM1	0.234		0.15	0.151
LCLC-103H	0.462	0.45	0.266	0.389
LK-2	0.593		0.509	0.397
LOU-NH91	0.519	0.522	0.579	0.553

Cell Line	relative viability (first compound 0.04 µM)	relative viability (first compound 0.4 µM)	relative viability (first compound 1.265 µM)	relative viability (first compound 4 µM)
LU99A	0.359	0.397	0.325	0.404
LXF-289	0.606		0.657	0.66
NCI-H23	0.467	0.444	0.423	0.393
NCI-H322M	0.411	0.486	0.422	0.351
NCI-H358	0.133	0.128	0.134	0.125
NCI-H441	0.254		0.206	0.178
NCI-H460	0.203	0.25	0.189	0.075
NCI-H520	0.269	0.238	0.172	0.245
NCI-H522	1.02	0.801	0.903	1.04
NCI-H647	0.505	0.376	0.33	0.282
NCI-H650	0.319	0.236	0.266	0.259
NCI-H661	0.421	0.511	0.407	0.359
NCI-H727	0.64	0.529	0.648	0.681
NCI-H838	0.253	0.25	0.18	0.199
NCI-H1355	0.403		0.358	0.366
NCI-H1395	0.631	0.617	0.592	0.597
NCI-H1437	0.305	0.26	0.221	0.222
NCI-H1650	0.5	0.436	0.25	0.186
NCI-H1651	0.495	0.516	0.534	0.528
NCI-H1666	0.617	0.654	0.578	0.61
NCI-H1734	0.343	0.326	0.323	0.36
NCI-H1755	0.436	0.443	0.456	0.447
NCI-H1792	0.674	0.574	0.708	0.698
NCI-H1793	0.309	0.319	0.32	0.303

Cell Line	relative viability (first compound 0.04 µM)	relative viability (first compound 0.4 µM)	relative viability (first compound 1.265 µM)	relative viability (first compound 4 µM)
NCI-H1915	0.58		0.517	0.297
NCI-H1944	0.335	0.359	0.314	0.383
NCI-H1975	0.645		0.192	0.499
NCI-H1993	0.57	0.576	0.525	0.44
NCI-H2009	0.234	0.199	0.193	0.203
NCI-H2023	0.336	0.458	0.337	0.354
NCI-H2085	0.461	0.446	0.473	0.439
NCI-H2087	0.217	0.224	0.18	0.139
NCI-H2126	0.357	0.353	0.356	0.349
NCI-H2170	0.371	0.284	0.363	0.344
NCI-H2228	1.02	0.313	0.467	0.701
NCI-H2347	0.43	0.418	0.38	0.394
NCI-H2405	0.574	0.501	0.425	0.536
NCI-H3122	0.219	0.17	0.172	0.155
PC-3 [JPC-3]	0.544	0.544	0.615	0.585
PC-14	0.581		0.553	0.541
RERF-LC-KJ	1.16	0.993	0.758	0.798
SK-LU-1	0.424	0.342	0.245	0.312
SK-MES-1	0.359	0.322	0.253	0.275
SW 900	0.538	0.624	0.507	0.492
SW 1573	0.415	0.373	0.309	0.337
UMC-11	0.364	0.344	0.347	0.379
